Results: a melting point compilation (Tetko et al.; mined from patent text by program, amines drawn as free bases though some values may be those of a salt)

melting point [°C] | Compound
126 to 129 | OCC1OC(n2c(Cl)nc3cc(Br)c(Br)cc32)C(O)C1O (stereo not given)
230 | O=C1c2ccccc2C(=O)c2oc(-c3cccc(F)c3)nc21
142 to 144 | CCOC(=O)C(O)(Cn1cncn1)c1ccc(F)cc1 (stereo not given)
128 | COC(CN1CCN(c2ccc(F)cc2)CC1)CN1c2cccc3cccc(c23)S1(=O)=O (stereo not given)
55 to 56 | CCCCCCCCCCCCCCCCCC(CCC(=O)O)[N+](=O)[O-] (stereo not given)
48 to 50 | CCCCCCCCCCCCCCC(CCCCCC(=O)O)CCCCCC(=O)O
119 to 120 | O=C(OCc1ccc(Cl)cc1)C(=C1NCCCS1)[N+](=O)[O-]
291 | COc1ccc(-c2[nH]nc3c2C(=O)c2c(NC(=O)CN4CCCCC4)cccc2-3)cc1
110 to 114 | COc1ccc(Nc2nc(C)ncc2S(=O)(=O)c2ccc(OCc3ccccc3)cc2)c(C)c1
151 to 152 | COCCNc1nc2ccccc2n(-c2ccc(Cl)cc2)c1=O
97.5 to 99 | O=c1c2ccccc2ccc2ccc(I)cc12
112 to 114 | N#CC=C1CCN(c2ccc(N3C[C@@H](CN=[N+]=[N-])OC3=O)cc2F)CC1
195 to 196 | CC(=O)Nc1ccc2ccn(C3CCN(CCc4ccc(F)cc4)CC3)c2c1
172 to 174 | CCCOCCc1ccc(-c2ccc3c(c2)C=C(C(=O)Nc2ccc(CN(C)C4CCOCC4)cc2)CCS3(=O)=O)c(F)c1
113 to 117 | COc1cc(OC)nc(OC(C(=O)O)C2CCc3ccccc32)n1 (stereo not given)
188 to 190 | CSc1nncn1-c1ccc(N2C[C@H](CNC(C)=O)OC2=O)cc1F
188 to 191 | Nc1csc2c([N+](=O)[O-])cccc12
255 to 257 | ON=c1cc(-c2cc3cccn3cn2)oc2cccc(C(F)(F)F)c12
39 to 41 | CC[Si](C)(C)CCCCCCCCC1=C(O)C(=O)c2ccccc2C1=O
142 to 144 | CC(=O)SCC(C)C(=O)N(CC(=O)O)C1CCCCC1 (stereo not given)
278 to 280 | CC(=O)Nc1ccc(NC(C)=O)c2c1C(=O)c1ccccc1C2=O

melting point [°C] | Compound
127 to 132 | c1cc2cc(N3CCOCC3)ccc2s1
125 | CCOC(=O)c1ccsc1Nc1ccc(F)cc1[N+](=O)[O-]
183 to 184 | CC(=O)N1c2ccccc2-c2c([N+](=O)[O-])cnn2C1c1ccc(Cl)cc1 (stereo not given)
50 to 53.5 | CCOC(=O)C=CC(=O)c1ccc(Oc2ccccc2)cc1
218 to 220 | O=C(O)C(=O)c1ccc(OCC(=O)N2CCc3ccccc3C2)cc1
144 | COc1ccc(-c2cc(=O)n(Cc3c(Cl)cccc3Cl)nc2-c2ccc(OC)cc2)cc1
189 | COc1cc(Cc2cnc(NC(C)=Nc3ccccc3)nc2N)cc(OC)c1OC
157 to 158 | NC(=O)CNC(=O)c1cc(-c2cccc3cc(Cc4cc(F)cc(Cl)c4)sc23)ccn1
160 to 162 | CC(=O)NCCc1cccc2ccc(OCCCCOc3ccc4occ(CCNC(C)=O)c4c3)cc12
141 to 142 | O=[N+]([O-])c1c(C=NO)cccc1OCc1ccccc1
145 to 146 | Cc1cc2cnn(-c3ccccc3)c2nc1OCc1ncnn1C
89 to 91 | CC1(C)CC(=O)C(C(=O)Nc2cccc(Cl)c2)C(=O)C1
97 to 98 | Clc1c2ccccc2nc2c1cnn2C1CCCC1
189 to 191 | COC(=O)c1cc(NC(C)=O)c(F)c(-c2ccc(Cl)c(OC)c2F)n1
119 to 120 | C=CCCC(=O)N1C(=O)OC[C@@H]1C(C)C
248 to 250 | CCn1ncc2c1ncc1c(N)nc3cc(C)nn3c12
> 350 | CCCc1nn(C)c2c(=O)[nH]c(Cc3ccc(S(=O)(=O)O)cc3)nc12
182 to 183 | COc1ccc(Cn2c(=O)c(NN)nc3ccc4ccccc4c32)c(OC)c1
256 to 257 | Nc1nc(-c2cc(Cl)ccc2Cl)nc(N2CC(O)C2)n1
154 to 156 | O=C(CCSCCOCCSCCC(=O)Nc1ccc(Nc2ccccc2)cc1)Nc1ccc(Nc2ccccc2)cc1

Second part, the compound before the results:

Compound | melting point [°C]
COc1ccc(-c2cc(F)c(F)cc2-c2ccc(S(C)(=O)=O)cc2)cc1Cl | 148
Cc1cccc2c(=O)[nH]c(C3CN4CCC3CC4)nc12 (stereo not given) | 230 to 231
Cc1ccc(Cc2cnc(NCCCCc3ncc(Br)cc3C)[nH]c2=O)cn1 | 151 to 152
Clc1ccc(CSC(Cn2ccnc2)C23CC4CC(CC(C4)C2)C3)cc1 (stereo not given) | 157 to 160
O=Cc1cccn1-c1ncccc1[N+](=O)[O-] | 122 to 125
CC1(C)[C@H]2CC[C@@H](CC(=O)O)[C@@H]1C2 | 50 to 53
CC(=N)Nc1nc(-c2ccccn2)nc2ccccc12 | 172 to 173
CCCCCCCC(=O)c1cc2sc3sccc3c2s1 | 130 to 131
CC(C)(C)OC(=O)N1C(=O)CCC1=O | 76 to 78
COc1ccc(C(=O)Nc2cccnc2)cc1NCc1cccs1 | 154 to 155
Cc1ncsc1C(=O)Nc1ccc(-n2nc(C(F)(F)F)c(Cl)c2C2CC2)nc1 | 144 to 149
CCOC(=O)CSC1=C(C=O)CCc2c(C(=O)OCC)sc(SC)c21 | 102 to 103
CSc1ncncc1C(c1ccccc1F)C(C)(C)C(=O)O (stereo not given) | 204 to 205
CCOc1nc(SC)nc(N2CCS(=O)CC2)c1[N+](=O)[O-] | 102 to 104
COc1cc2c(cc1OC)C(COCCN1CCCCC1)OCCC2 (stereo not given) | 124
N#CC1=C(C#N)Sc2nc3cc(C(F)(F)F)ccc3nc2S1 | 197 to 199
CCCCNC(=O)Oc1cccc(NC(=O)CC(C)(OCC)OCC)c1 | 130
Cn1c(Nc2c(Cl)cccc2Cl)nc2ccc3c(c21)C(=O)NC(C)(C)N3 | 238 to 239
CC(C)CC(=O)OC1COC(OC(=O)CC(C)C)CO1 (stereo not given) | 104 to 105
CC(=O)Oc1ccc(-c2ccc3cc(OC(C)=O)ccc3c2)cc1 | 178 to 180
Cc1nn(-c2c(Cl)cc(C(F)(F)F)cc2Cl)nc1Br | 82
O=C1COC(c2cccc(Cl)c2)c2ncccc21 (stereo not given) | 158 to 160

Compound | melting point [°C]
O=C(NNS(=O)(=O)c1ccccc1)c1ccccc1Br | 154 to 156
CSc1nc2sccc2c(=O)[nH]1 | 232 to 235
OC1CSC(Oc2cccn3ncnc23)C(O)C1O (stereo not given) | 155
CN(c1c(Cl)cc(Cl)cc1Cl)n1cc(C#N)c(=O)n(C)c1=O | 175 to 178
O=c1[nH]ncc(N2CCN(C34CC5CC(CC(C5)C3)C4)CC2)c1Cl | 292 to 294
CSCc1nc2c(N)nc3ccccc3c2n1Cc1ccccc1 | 217 to 219
Cc1nc2c(n1C)C(=O)c1ccccc1C2=O | > 253
c1cnc2[nH]c(C3CCNC3)cc2c1 (stereo not given) | 130 to 133
COC(=O)[C@@H](C)NC(=O)CBr | 51 to 52
NCC(CC(=O)O)c1ccc(Cl)c(Cl)c1 (stereo not given) | 202 to 204
C=Cc1ccc(NC(=O)C(C)C)nc1 | 77 to 78
CCOC(=O)Cc1csc(-c2cccc(Br)c2)n1 | 65 to 70
Cc1nc(SCc2ccncc2C(=O)O)sc1CC(=O)O | 178 to 180
COc1cc2ncnc(C3C(=O)N(C)c4ccccc43)c2cc1OC (stereo not given) | 233 to 235
CCCn1c(CC)ccc1Cc1cccc(NC(N)=O)c1 | 59 to 61
CC(C)(C)OC(=O)N1CCc2c(oc3cc(S(=O)(=O)c4cccc(F)c4)ccc23)C1(C)C | 58 to 60
O=C(Nc1ccccc1Nc1ccnc2c(NC(=O)c3c(Cl)cccc3Cl)cccc12)c1cccnc1 | 151 to 154
NC(=O)c1nc(-c2ccncc2)nc2c1NC(=O)CN2c1ccccc1 | 298 to 304
Cc1cccc2c1CCNC2=O | 141 to 143
CC1(C)CC(O)C(C)(C)c2cc(C=O)ccc21 (stereo not given) | 76 to 78
N#Cc1cc(CBr)ccc1Cl | 55 to 58
Nc1nc2ccccc2c2c1ncn2CCOCC#Cc1ccc(Oc2ccccc2)cc1 | 146 to 148

Compound | melting point [°C]
COc1ccc(C(=O)Nc2c(C)c(C)c3c(c2C)C(c2ccc(C(C)C)cc2)C(C)(C)O3)cc1 (stereo not given) | 202 to 205
COC(=O)CN(C=O)C1c2ccccc2CC1(C)C (stereo not given) | 172 to 173
CCCCCCCCn1c2cc(I)ccc2c2ccc(I)cc21 | 82 to 84
CC(=O)Oc1cccc(-c2csc3nc(C45CC6CC(CC(C6)C4)C5)cn23)c1 | 199 to 201
CCC(CC)NC(=O)c1ccc(-c2scc(Br)c2CC(=O)OC)cc1 | 97 to 98
O=C(O)CCCCCCCn1ncc(-c2ccccc2)c1-c1ccccc1 | 94 to 95
O=C(N=P(c1ccccc1)(c1ccccc1)c1ccccc1)OCC1CC1 | 107 to 113
O=C(O)C(CCCc1ccccc1)NS(=O)(=O)c1ccc(N2CCC(c3ccccc3)CC2)cc1 (stereo not given) | 59 to 62
CCCCc1nc(Sc2ccccc2)c(C(=O)OCC)[nH]1 | 74
NS(=O)(=O)c1cc2ccncc2o1 | 199 to 201
CC(C)(O)P(=O)(Oc1ccccc1)Oc1ccccc1 | 70 to 72
CCn1ncc2nc(C(=O)OCC#N)c(-c3ccccc3)nc21 | 102 to 103
CC1(C)OC[C@H](COc2nc(S(C)(=O)=O)nc3[nH]nc(-c4ccccc4Cl)c23)O1 | 161 to 162
O=S1(=O)NCN(C2CC2)c2cc(Br)cc(C(F)(F)F)c21 | 200 to 201
CSCOc1cc(Cl)ccc1C=O | 67 to 68
O=C1CCc2c(Cl)sc(-c3ccccc3F)c21 | 133 to 135
N#Cc1cccc2c1CC(=O)c1cc(F)ccc1S2 | 174 to 175
O=c1[nH]c2nc3ccccc3n2c(=O)n1C1CCCCC1 | 335
CCc1c2nc(-c3cc(S(C)(=O)=O)ccc3OCC(C)C)[nH]c(=O)c2nn1CCN1CCOCC1 | 268 to 273
Cc1nc2c(Br)cnn2c(Cl)c1CCCl | 128 to 130
